Measurements as given in the NIST ThermoML archive (doi:10.1021/je060291c).

Test: wn = mass fraction of the nth substance listed
Details: Liquid, Pulse-echo method, w2 = 0.49

CC(F)(F)F [1,1,1-trifluoroethane] + FC(F)C(F)(F)F
speed of sound [m/s]
Details	253.22 K	258.15 K	265.62 K
1150 kPa	–	574.9	–
1160 kPa	598.8	–	–
1170 kPa	–	575.3	539.5
1190 kPa	–	575.7	–
1210 kPa	–	–	540.1
1260 kPa	599.7	576.3	540.5
1380 kPa	600.9	577.6	541.7
1500 kPa	602	578.8	543
1630 kPa	603.1	580	544.3
1750 kPa	604.2	581.2	545.7
2010 kPa	606.4	583.4	548.3
2250 kPa	608.7	585.8	550.8
2510 kPa	610.9	588.1	553.3
2750 kPa	613.1	590.3	555.9
3010 kPa	615.1	592.6	558.4
3500 kPa	619.3	597.1	563.3
4000 kPa	623.7	601.5	568.3
4500 kPa	627.9	606.1	572.9
5000 kPa	631.9	610.4	577.7
6010 kPa	639.9	618.6	586.7
7010 kPa	647.5	626.7	595.3
8000 kPa	655.1	634.7	603.7
9000 kPa	662.6	642.2	612.1
10000 kPa	669.8	649.7	620.3
12000 kPa	683.6	664	635.3
14000 kPa	697	677.9	–
16010 kPa	709.7	691.3	–
18000 kPa	722.2	704.1	–
20000 kPa	734.3	716.5	–
23000 kPa	751.6	734.2	–
26000 kPa	768.1	751.1	–
29010 kPa	783.7	767.3	–
32000 kPa	798.4	782.5	–
35000 kPa	812.8	797.1	–
40000 kPa	835.8	820.8	–
45000 kPa	857.8	843.3	–
50000 kPa	878.9	864.3	–
55000 kPa	899	884.5	–
60000 kPa	918.8	904.1	–
65000 kPa	937.2	923.1	–
